From US20070117743A1, “New antitumoral compounds” (priority 2003, published 2007)
Where a SMILES comes first, the peptide text is derived from it. Bridges are numbered along the chain shown (N, C = ends). [ ]: non-standard residue; d: D form. The star is where a group is joined. d(aIle) = CC[C@H](C)[C@@H](N)C(=O)O; d(aThr) = C[C@@H](O)[C@@H](N)C(=O)O; Hexanoyl(5-Me) = CC(C)CCCC(=O)*; Orn = NCCC[C@H](N)C(=O)O; Dhb = C/C=C(\N)C(=O)O

Legend:
Format in all cases: cell-based, human
[1] = system: SK-MEL-28; experiment: SRB colorimetric assay of cell growth and viability, SK-MEL-28; conditions: 48 hours exposure; for CC50: read-out: LC50 MEL-28
[2] = system: HeLa-APL; experiment: SRB colorimetric assay of cell growth and viability, HeLa-APL; conditions: 48 hours exposure; for CC50: read-out: LC50 HELA-APL
[3] = system: SK-BR-3; experiment: SRB colorimetric assay of cell growth and viability, SK-BR-3; conditions: 48 hours exposure
[4] = system: IGROV-ET; experiment: SRB colorimetric assay of cell growth and viability, IGROV-ET; conditions: 48 hours exposure; for CC50: read-out: LC50 IGROV-ET
[5] = system: HeLa; experiment: SRB colorimetric assay of cell growth and viability, HeLa; conditions: 48 hours exposure; for CC50: read-out: LC50 HELA
[6] = system: LoVo-Dox; experiment: SRB colorimetric assay of cell growth and viability, LoVo-Dox; conditions: 48 hours exposure; for CC50: read-out: LC50 LOVO-DOX
Procedure, shortened: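 Sulforhodamine B assay run after 48 h of continuous drug contact; cells seeded 5×10^3/well in RPMI 1640 10% FBS, attached 18 h. Triplicate OD490 values give cytostatic (TGI), cytotoxic (LC) and GI parameters.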

[7] = system: LNCaP; experiment: SRB colorimetric assay of cell growth and viability, LNCaP; conditions: 48 hours exposure; for GI50: read-out: GI50 LN-caP; for CC50: read-out: LC50 LN-caP
[8] = system: HT-29; experiment: SRB colorimetric assay of cell growth and viability, HT-29; conditions: 48 hours exposure; for GI50: read-out: GI50 HT-29; for CC50: read-out: LC50 HT-29
[9] = system: A-549; experiment: SRB colorimetric assay of cell growth and viability, A-549; conditions: 48 hours exposure; for GI50: read-out: GI50 A-549; for CC50: read-out: LC50 A-549
[10] = system: IGROV-1; experiment: SRB colorimetric assay of cell growth and viability, IGROV-1; conditions: 48 hours exposure
[11] = system: PANC-1; experiment: SRB colorimetric assay of cell growth and viability, PANC-1; conditions: 48 hours exposure; for CC50: read-out: LC50 PANC-1
[12] = system: LoVo; experiment: SRB colorimetric assay of cell growth and viability, LoVo; conditions: 48 hours exposure; for CC50: read-out: LC50 LOVO
[13] = system: K-562; experiment: SRB colorimetric assay of cell growth and viability, K-562; conditions: 48 hours exposure; for CC50: read-out: LC50 K-562
[14] = system: DU-145; experiment: SRB colorimetric assay of cell growth and viability, DU-145; conditions: 48 hours exposure

[(4RS)-MeHex^14]-KF [Compound 17]
GI50 [1]: 1.3 µM
TGI MEL-28 [1]: 2.54E−06 Molar
CC50 [1]: 4.96 µM
GI50 [2]: 0.758 µM
TGI HELA-APL [2]: 1.86E−06 Molar
CC50 [2]: 4.59 µM
GI50 [3]: 0.162 µM
LC50 [3]: 0.606 µM
TGI SK-BR-3 [3]: 3.14E−07 Molar
GI50 [4]: 0.209 µM
TGI IGROV-ET [4]: 4.24E−07 Molar
CC50 [4]: 1.84 µM
GI50 [5]: 0.744 µM
TGI HELA [5]: 1.71E−06 Molar
CC50 [5]: 3.92 µM
GI50 [6]: 0.18 µM
TGI LOVO-DOX [6]: 3.66E−07 Molar
CC50 [6]: 1.27 µM
TGI LN-caP [7]: 2.10E−06 Molar
GI50 [7]: 0.934 µM
CC50 [7]: 4.75 µM
TGI HT-29 [8]: 2.84E−07 Molar
GI50 [8]: 0.147 µM
CC50 [8]: 0.55 µM
TGI A-549 [9]: 7.51E−07 Molar
GI50 [9]: 0.24 µM
CC50 [9]: 2.89 µM
GI50 [10]: 0.185 µM
LC50 (concentration causing 50% net cell killing) [10]: 1.49 µM
TGI IGROV [10]: 3.96E−07 Molar
GI50 [11]: 3.82 µM
TGI PANC-1 [11]: 6.77E−06 Molar
CC50 [11]: ≥ 6.77 µM
GI50 [12]: 0.141 µM
TGI LOVO [12]: 2.67E−07 Molar
CC50 [12]: 0.503 µM
GI50 [13]: 2.37 µM
TGI K-562 [13]: 4.07E−06 Molar
CC50 [13]: ≥ 6.77 µM
GI50 [14]: 0.252 µM
LC50 (concentration causing 50% net cell kill) [14]: 2.65 µM
TGI DU-145 [14]: 8.39E−07 Molar

C/C=C1\NC(=O)[C@H](Cc2ccccc2)NC(=O)[C@@H](C(C)C)NC(=O)[C@@H]([C@@H](C)CC)NC(=O)[C@H](NC(=O)[C@H](NC(=O)[C@H](CCCN)NC(=O)[C@H]2CCCN2C(=O)[C@H](NC(=O)[C@@H](NC(=O)[C@@H](NC(=O)[C@@H](C(C)C)N(CCCCCCC)CCCCCCC)[C@@H](C)O)C(C)C)C(C)C)[C@@H](C)CC)[C@@H](C)OC(=O)[C@H](C(C)C)NC1=O [Compound 98, [no5-MeHex^14-N-(Hep)2-D-Val^13]-Kahalalide F]
TGI MEL-28 ([1]; SRB): 6.40E−06 Molar
TGI HELA-APL ([2]; HELA-APL): 3.46E−06 Molar
TGI SK-BR-3 ([3]; SRB): 6.40E−06 Molar
TGI IGROV-ET ([4]; SRB): 6.40E−06 Molar
TGI HELA ([5]; HELA): 2.43E−06 Molar
TGI LOVO-DOX ([6]; LOVO-DOX): 6.40E−06 Molar
TGI LN-caP ([7]; SRB): 6.40E−06 Molar
TGI HT-29 ([8]; HT-29): 6.40E−06 Molar
TGI A-549 ([9]; A-549): 6.40E−06 Molar
TGI IGROV ([10]; SRB): 6.40E−06 Molar
TGI PANC-1 ([11]; PANC-1): 6.40E−06 Molar
TGI LOVO ([12]; LOVO): 6.40E−06 Molar
TGI K-562 ([13]; K-562): 6.40E−06 Molar
TGI DU-145 ([14]; SRB): 6.40E−06 Molar

C/C=C1\NC(=O)[C@H](Cc2ccccc2)NC(=O)[C@@H](C(C)C)NC(=O)[C@@H](C(C)C)NC(=O)[C@H](NC(=O)[C@H](NC(=O)[C@H](CCCN)NC(=O)[C@H]2CCCN2C(=O)[C@H](NC(=O)[C@@H](NC(=O)[C@@H](NC(=O)[C@H](NC(=O)CCCC(C)C)C(C)C)[C@@H](C)O)C(C)C)C(C)C)C(C)C)[C@@H](C)OC(=O)[C@H](C(C)C)NC1=O [Compound 12, [D-Val^5, D-Val^7]-KF] ({Hexanoyl(5-Me)}-[dV]TV[dV][dP][Orn][dV][d(aThr)][dV][dV]F[Dhb]V; ester 8-C)
GI50 [1]: 1.68 µM
TGI MEL-28 [1]: 3.12E−06 Molar
CC50 [1]: 5.78 µM
GI50 [2]: 3.02 µM
TGI HELA-APL [2]: 6.01E−06 Molar
CC50 [2]: 6.9 µM
GI50 [3]: 1.74 µM
LC50 [3]: 5.38 µM
TGI SK-BR-3 [3]: 3.06E−06 Molar
GI50 [4]: 1.79 µM
TGI IGROV-ET [4]: 2.97E−06 Molar
CC50 [4]: 4.93 µM
GI50 [5]: 1.75 µM
TGI HELA [5]: 2.98E−06 Molar
CC50 [5]: 5.07 µM
GI50 [6]: 0.952 µM
TGI LOVO-DOX [6]: 1.97E−06 Molar
CC50 [6]: 4.08 µM
TGI LN-caP [7]: 3.79E−08 Molar
GI50 [7]: 2.8 µM
CC50 [7]: 5.14 µM
TGI HT-29 [8]: 2.51E−06 Molar
GI50 [8]: 1.29 µM
CC50 [8]: 4.88 µM
TGI A-549 [9]: 6.68E−06 Molar
GI50 [9]: 2.17 µM
CC50 [9]: 6.9 µM
GI50 [10]: 1.85 µM
LC50 (concentration causing 50% net cell killing) [10]: 4.93 µM
TGI IGROV [10]: 3.01E−06 Molar
GI50 [11]: 4.67 µM
TGI PANC-1 [11]: 6.90E−06 Molar
CC50 [11]: 6.9 µM
GI50 [12]: 1.26 µM
TGI LOVO [12]: 2.28E−06 Molar
CC50 [12]: 4.13 µM
GI50 [13]: 3.19 µM
TGI K-562 [13]: 5.46E−06 Molar
CC50 [13]: 6.9 µM
GI50 [14]: 1.61 µM
LC50 (concentration causing 50% net cell kill) [14]: 4.92 µM
TGI DU-145 [14]: 2.82E−06 Molar

C/C=C1\NC(=O)[C@H](Cc2ccccc2)NC(=O)[C@@H](C(C)C)NC(=O)[C@@H]([C@@H](C)CC)NC(=O)[C@H](NC(=O)[C@H](NC(=O)[C@H](CCCN)NC(=O)[C@H]2CCCN2C(=O)[C@H](NC(=O)[C@H](CCC(=O)O)NC(=O)[C@@H](NC(=O)[C@H](NC(=O)CCCC(C)C)C(C)C)[C@@H](C)O)C(C)C)[C@@H](C)CC)[C@@H](C)OC(=O)[C@H](C(C)C)NC1=O [Compound 51, [Glu^11]-KF] ({Hexanoyl(5-Me)}-[dV]TE[dV][dP][Orn][d(aIle)][d(aThr)][d(aIle)][dV]F[Dhb]V; ester 8-C)
GI50 [1]: 6.63 µM
TGI MEL-28 [1]: 6.63E−06 Molar
CC50 [1]: 6.63 µM
GI50 [2]: 6.63 µM
TGI HELA-APL [2]: 6.63E−06 Molar
CC50 [2]: 6.63 µM
GI50 [3]: 6.63 µM
LC50 [3]: 6.63 µM
TGI SK-BR-3 [3]: 6.63E−06 Molar
GI50 [4]: 6.63 µM
TGI IGROV-ET [4]: 6.63E−06 Molar
CC50 [4]: 6.63 µM
GI50 [5]: 6.63 µM
TGI HELA [5]: 6.63E−06 Molar
CC50 [5]: 6.63 µM
GI50 [6]: 6.63 µM
TGI LOVO-DOX [6]: 6.63E−06 Molar
CC50 [6]: 6.63 µM
TGI LN-caP [7]: 6.63E−06 Molar
GI50 [7]: 6.63 µM
CC50 [7]: 6.63 µM
TGI HT-29 [8]: 6.63E−06 Molar
GI50 [8]: 6.63 µM
CC50 [8]: 6.63 µM
TGI A-549 [9]: 6.63E−06 Molar
GI50 [9]: 6.63 µM
CC50 [9]: 6.63 µM
GI50 [10]: 6.63 µM
LC50 (concentration causing 50% net cell killing) [10]: 6.63 µM
TGI IGROV [10]: 6.63E−06 Molar
GI50 [11]: 6.63 µM
TGI PANC-1 [11]: 6.63E−06 Molar
CC50 [11]: 6.63 µM
GI50 [12]: 6.63 µM
TGI LOVO [12]: 6.63E−06 Molar
CC50 [12]: 6.63 µM
GI50 [13]: 6.63 µM
TGI K-562 [13]: 6.63E−06 Molar
CC50 [13]: 6.63 µM
GI50 [14]: 6.63 µM
LC50 (concentration causing 50% net cell kill) [14]: 6.63 µM
TGI DU-145 [14]: 6.63E−06 Molar
